Laboratory results taken from US20230302131A1, “MPC INHIBITION FOR PRODUCING T-CELLS WITH A MEMORY PHENOTYPE” (UNIVERSITÉ DE LAUSANNE, priority 2020, published 2023).
Entries after “also recorded” stand apart in the source; their conditions may differ.

Assays:
B16-OVA tumor = experiment: B16-OVA melanoma tumor model, adoptive cell transfer of pre-treated OT1 cells; assay type: in vivo, mouse
Protocol: To assess the functional capacity of the generated memory T cells, the MPCi-treated cells were further tested in a mouse model of melanoma. Briefly, 10^5 ovalbumin-expressing B16 melanoma cells were injected subcutaneously in 6-week-old mice. At day 6 post-engraftment, when a palpable tumor was present, mice were irradiated with 5Gy. The next day 10^5 MPCi- or DMSO-treated OT1 cells were intravenously injected, followed by a subcutaneous vaccination of 50 μg CpG and 10 μg SIINFEKL (FIG. 2A). […] Confirming the Listeria data, the proportion of central memory CD8+ T cells in the spleen was increased upon MPCi treatment (FIG. 2C).
Activated CD45.1+OT-1 splenocytes were culture in vitro for 7 days as described above, collected and purified on a Ficoll gradient, allowing to separate dead and live splenocytes. Live splenocytes were counted with Trypan blue stain 0.4%. 100′000 live splenocytes were transferred into CD45.2+ host mice by tail vein injection.
B16-OVA cells were cultured in DMEM (GIBCO) with 10% FBS and 1% P/S before their subcutaneous injection into the mouse flank. Each mouse received 100′000 cells in a volume of 200 μl of PBS. 6 days after B16-OVA cells injection, tumors were measured, mice were randomized and lymphodepleted by irradiation (5 Gray). 7 days after B16-Ova injection, mice were adoptively transferred with the ACT protocol described previously. Following the ACT, mice received a vaccination of CpG (50 μg/mouse) and N4 Ova peptide (10 μg/mouse) diluted in PBS to obtain a total volume of 100 μl/mouse, injected subcutaneously at the tail base. Tumors were measured every 2 days and the tumor volume was calculated according to the formula: V=π×[d2×D]/6, where d is the minor tumor axis and D is the major tumor axis. At day 26 days post-tumor engraftment, tumors and spleens were dissected were then stained for flow cytometry analyses.
Antibody panel for intra-tumoral T cells and splenocytic T cells was: CD8-PE-texas-Red, CD45.1-Pacific blue, CD45.2-FITC, CD62L-PE-Cy7, CD44-APC-Cy7, PD1-APC, Lag3-PE, and CD127-FITC.
Antibody panel for cytokine detection contained: CD8-PE-texas-Red, CD45.1-FITC, CD45.2-APC, TNFa-Pacific blue, IFNg-PerCP-Cy5.5, IL-2-PE.

OT2 CD4 T cells = experiment: OT2 CD4 T cell co-culture with dendritic cells, CD62L by flow cytometry; assay type: cell-based, mouse; conditions: 75 μM; day 7; vs DMSO
Protocol: Naïve CD4 T cells were isolated by negative selection (Stem Cell Technologies) from the spleen of OT2 mice. Dendritic cells were isolated from spleens of C57BL/6 mice by CD11c positive selection (Stem Cell Technologies). 2×10^5 CD4 T cells were co-cultured with 1×10^6 dendritic cells in RPMI medium supplemented with 10% FBS, 1% Penicillin/Streptomycin, 50 μM β-mercaptoethanol, 1% HEPES, 1× Non-essential amino acids (Gibco 11140-035), 2 mM L-glutamine and 1 mM Sodium Pyruvate. T cells were activated by adding 1 μg/ml Ovalbumine peptide (323-339, ISQAVHAAHAEINEAGR) and 100 IU/ml rhIL-2, in the presence of 75 μM UK5099 or DMSO. Cells were split on day 4 and re-cultured in fresh medium containing 100 IU/ml rhIL-2, in the presence of 75 μM UK5099 or DMSO.
An experiment has been performed on mouse T cells in order to evaluate if MPC inhibition also promotes memory marker expression in CD4 T cells. As indicated in the experimental scheme (FIG. 5A), CD4 T cells from OT2 mice were activated by co-culture with dendritic cells. OT2 mice are transgenic for an […] recognizing specifically a chicken ovalbumine peptide 323-339 associated with the mouse MHC class II molecule I-Ab. We activated OT2 CD4 T cells by co-culture with dendritic cells loaded with […] of the ovalbumine peptide in the presence of 100 IU/ml recombinant human IL2 in the presence of 75 μM UK5099 or DMSO control. […]

adult human CD8 T cells = experiment: Adult human PBMC activation with anti-CD3/CD28 beads, T cell phenotype by flow cytometry; assay type: cell-based; conditions: adult PBMCs, day 9, vs DMSO
Protocol: FIG. 7: MPC inhibition during the activation and culture of adult human T cells induces a memory phenotype. (A) Experimental design. PBMCs were isolated from adult healthy volunteers and activated with anti-CD3/CD28 beads in the presence of DMSO or UK5099 (25 μM). Beads were removed at day 5 and T cell phenotype was analysed at day 9. (B) Percentage of CD8 T cells expressing the memory marker CD62L. (C) The mean fluorescent intensity of CD62L in the respective positive population. (D) Percentage of CD8 T cells expressing markers that allows their identification as stem cell memory T cells (TSCM). (E-F) Mitochonrial mass (identified by MitoGreen staining, E) and mitochondrial membrane potential (TMRM, F), measured by flow cytometry and expressed as fold change as compared to DMSO. (G) Mitochondrial membrane potential normalized for the mitochondrial mass, expressed as the ratio of […], fold change as compared to DMSO. Pooled data from 2 independant experiments. ns: non-significant, *p<0.05, **[…], ***p<0.001. Data represents mean±s.e.m.
Heparinised blood was diluted with PBS and pipetted on top of Ficoll-paque (LymphoPrep). After centrifugation at 1800 rpm for 20 minutes at room temperature, the layer of cells at the intersection, containing the PBMCs was removed, washed and resuspended at 5×10^5 cells/ml of RPMI medium containing 8% human serum (AB serum), antibiotics, 2 mM L-Glutamine, 1% non-essential amino acids, 1 mM sodium pyruvate and 50 μM β-mercaptoethanol (all Gibco). Cells were activated with Human T-activator CD3/CD28 Dynabeads at a 1 bead/cell ratio with 150 IU/ml human recombinant IL2 and DMSO or 25 μM UK5099. Throughout the culture, cells were regularly split when necessary and beads were removed at day 5. At day 9, a fraction of the cells was stained with antibodies for flow cytometry analysis or for mitochondrial analysis.

N#CC(=Cc1cn(-c2ccccc2)c2ccccc12)C(=O)O [UK5099, 2-cyano-3-(1-phenyl-1H-indol-3-yl)-2-propenoic acid]
proportion of central memory CD8+ T cells in the spleen (B16-OVA tumor; CD44 and CD62L double positive of transferred cells): increased | B16 tumor growth (B16-OVA tumor; mice that received 10^5 pre-treated OT1 CD8+ T cells, compared to DMSO, listed as MPCi): enhanced anti-tumoral activity; also recorded: strongly reduced | expression of PD-1 in T cells infiltrating the tumor (B16-OVA tumor; transferred CD8+CD45.1+ population in the tumor, vs DMSO): significantly decreased | cells double positive for IFNγ and TNF upon restimulation (B16-OVA tumor; tumor single cell suspension restimulated with SIINFEKL for 4 h): higher proportion | percentage of transferred cells out of total CD8+ T cells in spleen and tumor (B16-OVA tumor; upon dissection, data not shown): not strikingly different | CD62L-positive population of mouse CD4 T cells (OT2 CD4 T cells): strong increase | population of stem cell-like memory T cells (TSCM) (adult human CD8 T cells; 25 μM): increased | population of CD8 T cells positive for CD62L (adult human CD8 T cells; UK5099 25 μM): further induce | mean fluorescent intensity of the CD62L signal in the CD62L-positive cells (adult human CD8 T cells): increased
